In ChEMBL document CHEMBL1201862, “PubChem BioAssay data set” (2004) one finds IC50 and EC50 data, which are given here for three compounds.

Calls of active or inactive are those of the source. Rule as the data show it, for most assays here: actives have a measured IC50 and inactives only a lower limit.

Assay [1] addresses T1, SUMO-activating enzyme (Homo sapiens, UniProt Q9UBT2). Put plainly: blockers of UBC9-mediated SUMO conjugation – biochemical, AlphaScreen, SUMOylation inhibitor project, confirmation (AID 2018). The class given is functional. (Alpha assays give light when donor and acceptor beads are brought close together.)
The target of assay [2] is T1, SUMO-activating enzyme. Put plainly: blockers of SAE1/SAE2–UBC9 SUMO transfer – biochemical, HTRF, uHTS, primary screen (AID 2006). It counts as protein-complex assay.
For assay [3], the target named is T2, Coagulation factor XII (Homo sapiens, UniProt P00748).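 Also: activated factor XIIa alpha cleaving a fluorogenic AMC peptide substrate; inhibitor potency from loss of enzyme activity.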
T2 sequence (P00748 whole entry): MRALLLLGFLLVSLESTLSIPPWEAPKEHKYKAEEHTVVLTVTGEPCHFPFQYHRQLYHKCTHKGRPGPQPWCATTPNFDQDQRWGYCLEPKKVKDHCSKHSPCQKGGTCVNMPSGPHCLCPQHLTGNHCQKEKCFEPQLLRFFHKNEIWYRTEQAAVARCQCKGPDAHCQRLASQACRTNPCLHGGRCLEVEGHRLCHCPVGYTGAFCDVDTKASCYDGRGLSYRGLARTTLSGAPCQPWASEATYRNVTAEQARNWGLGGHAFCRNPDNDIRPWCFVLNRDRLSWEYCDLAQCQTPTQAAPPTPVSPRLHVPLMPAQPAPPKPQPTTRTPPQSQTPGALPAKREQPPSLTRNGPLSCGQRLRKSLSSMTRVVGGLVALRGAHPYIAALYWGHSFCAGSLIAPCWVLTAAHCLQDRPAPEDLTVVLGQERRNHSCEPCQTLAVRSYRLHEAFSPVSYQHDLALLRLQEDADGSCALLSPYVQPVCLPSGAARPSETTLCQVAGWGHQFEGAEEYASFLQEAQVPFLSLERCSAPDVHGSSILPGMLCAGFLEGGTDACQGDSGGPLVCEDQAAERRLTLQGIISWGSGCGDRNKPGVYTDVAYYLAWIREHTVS
The class given is functional.

Assay [4] deals with T3, Carboxy-terminal domain RNA polymerase II polypeptide A small phosphatase 1 (Homo sapiens, UniProt Q9GZU7).
T3 sequence (Q9GZU7 whole entry): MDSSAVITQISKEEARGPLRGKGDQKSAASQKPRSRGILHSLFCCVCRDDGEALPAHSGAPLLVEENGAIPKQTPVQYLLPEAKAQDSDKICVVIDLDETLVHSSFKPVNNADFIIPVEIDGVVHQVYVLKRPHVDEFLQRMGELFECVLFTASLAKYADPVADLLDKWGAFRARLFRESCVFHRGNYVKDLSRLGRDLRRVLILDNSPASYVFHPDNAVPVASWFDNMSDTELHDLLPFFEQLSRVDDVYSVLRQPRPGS
Nature of the assay: CTDSP1 inhibitors, concentration-response, biochemical, absorbance readout, ultra-high-throughput screen actives (AID 540297). The class given is functional.

In assay [5] the test system is HEK293. Nature of the assay: inhibition of NOD1-driven NF-kB reporter – cell-based, luminescence, uHTS, primary screen (AID 1578). The class given is functional. To be noted: Homo sapiens.
Assay [6] relates to HEK293. Nature of the assay: cells. Particulars: Homo sapiens. It counts as functional, cell-based.
Assay [7] deals with HEK293. Nature of the assay: cells. The class given is functional, cell-based. Particulars: Homo sapiens. The source holds these as a separate data set.
Assay [8] relates to HEK293. Nature of the assay: NOD2 signaling inhibitors in MDP-stimulated cells, cell-based, uHTS, luminescence (AID 2001). It counts as functional. To be noted: Homo sapiens.
For assay [9], the system named is HEK293. Put plainly: cells. Particulars: Homo sapiens. The class given is functional, cell-based. The source holds these as a separate data set.
Assay [10] relates to HEK293. Put plainly: cells. To be noted: Homo sapiens.
Assay [11] deals with Signal transducer and activator of transcription 3 (Homo sapiens, UniProt P40763). Nature of the assay: STAT3 blockade with qPCR and toxicity readouts – cell-based, STAT1 panel, cytotoxicity, late-stage follow-up, panel member STAT3 Inhibition (AID 2078). A general note: Quantitative PCR measures a nucleic acid by following its amplification.
Sequence of Signal transducer and activator of transcription 3 (P40763 whole entry): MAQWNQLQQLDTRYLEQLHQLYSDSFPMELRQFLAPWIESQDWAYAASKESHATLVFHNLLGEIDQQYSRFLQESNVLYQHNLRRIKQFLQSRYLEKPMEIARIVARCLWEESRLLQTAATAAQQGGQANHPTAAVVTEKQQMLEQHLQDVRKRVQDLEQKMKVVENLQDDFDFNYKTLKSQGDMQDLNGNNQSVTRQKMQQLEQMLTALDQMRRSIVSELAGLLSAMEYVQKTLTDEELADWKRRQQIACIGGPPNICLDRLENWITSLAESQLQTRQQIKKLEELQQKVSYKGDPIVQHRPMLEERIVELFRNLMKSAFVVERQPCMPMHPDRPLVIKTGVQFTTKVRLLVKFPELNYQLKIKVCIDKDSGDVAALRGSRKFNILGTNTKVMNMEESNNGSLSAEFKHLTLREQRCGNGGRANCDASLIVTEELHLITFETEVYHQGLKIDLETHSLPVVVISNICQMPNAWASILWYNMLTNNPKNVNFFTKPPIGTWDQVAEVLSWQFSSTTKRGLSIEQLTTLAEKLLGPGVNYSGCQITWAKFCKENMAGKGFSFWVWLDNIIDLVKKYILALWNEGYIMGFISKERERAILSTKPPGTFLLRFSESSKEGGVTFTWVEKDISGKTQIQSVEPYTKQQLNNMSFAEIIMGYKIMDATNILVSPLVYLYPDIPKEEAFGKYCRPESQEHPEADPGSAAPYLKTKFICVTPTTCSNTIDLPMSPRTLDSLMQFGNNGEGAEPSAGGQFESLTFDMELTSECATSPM
Assay [12] concerns the target Signal transducer and activator of transcription 1-alpha/beta (Homo sapiens, UniProt P42224). Nature of the assay: STAT3 blockade with qPCR and toxicity readouts – cell-based, STAT1 panel, cytotoxicity, late-stage follow-up, panel member STAT1 Inhibition (AID 2078).

T1 sequence (Q9UBE0 whole entry): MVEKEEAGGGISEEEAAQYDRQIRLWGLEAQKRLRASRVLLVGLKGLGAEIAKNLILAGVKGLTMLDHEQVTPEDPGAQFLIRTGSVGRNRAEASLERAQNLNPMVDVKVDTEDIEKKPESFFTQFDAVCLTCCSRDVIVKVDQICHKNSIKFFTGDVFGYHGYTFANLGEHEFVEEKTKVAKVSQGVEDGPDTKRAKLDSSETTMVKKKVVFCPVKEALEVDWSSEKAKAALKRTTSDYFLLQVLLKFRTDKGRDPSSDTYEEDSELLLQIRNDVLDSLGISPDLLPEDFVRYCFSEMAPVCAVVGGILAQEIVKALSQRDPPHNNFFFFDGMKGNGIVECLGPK
T1 sequence (Q9UBT2 whole entry): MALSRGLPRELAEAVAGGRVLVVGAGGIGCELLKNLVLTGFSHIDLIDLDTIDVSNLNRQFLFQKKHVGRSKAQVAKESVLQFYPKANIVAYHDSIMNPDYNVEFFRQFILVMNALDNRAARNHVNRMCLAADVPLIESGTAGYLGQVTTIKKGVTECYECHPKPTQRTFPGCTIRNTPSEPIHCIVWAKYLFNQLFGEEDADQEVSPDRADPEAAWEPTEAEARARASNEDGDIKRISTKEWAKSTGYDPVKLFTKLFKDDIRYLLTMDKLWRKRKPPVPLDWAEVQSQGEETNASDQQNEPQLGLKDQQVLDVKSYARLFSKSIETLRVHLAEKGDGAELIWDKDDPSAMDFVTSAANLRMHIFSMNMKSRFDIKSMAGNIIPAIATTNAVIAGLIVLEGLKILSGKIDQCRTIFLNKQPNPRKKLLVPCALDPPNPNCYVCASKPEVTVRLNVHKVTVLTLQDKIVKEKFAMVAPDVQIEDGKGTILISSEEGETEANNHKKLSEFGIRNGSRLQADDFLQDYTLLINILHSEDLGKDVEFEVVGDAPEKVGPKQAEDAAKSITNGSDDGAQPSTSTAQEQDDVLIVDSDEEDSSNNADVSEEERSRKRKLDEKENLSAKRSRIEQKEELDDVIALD
Sequence of Signal transducer and activator of transcription 1-alpha/beta (P42224 whole entry): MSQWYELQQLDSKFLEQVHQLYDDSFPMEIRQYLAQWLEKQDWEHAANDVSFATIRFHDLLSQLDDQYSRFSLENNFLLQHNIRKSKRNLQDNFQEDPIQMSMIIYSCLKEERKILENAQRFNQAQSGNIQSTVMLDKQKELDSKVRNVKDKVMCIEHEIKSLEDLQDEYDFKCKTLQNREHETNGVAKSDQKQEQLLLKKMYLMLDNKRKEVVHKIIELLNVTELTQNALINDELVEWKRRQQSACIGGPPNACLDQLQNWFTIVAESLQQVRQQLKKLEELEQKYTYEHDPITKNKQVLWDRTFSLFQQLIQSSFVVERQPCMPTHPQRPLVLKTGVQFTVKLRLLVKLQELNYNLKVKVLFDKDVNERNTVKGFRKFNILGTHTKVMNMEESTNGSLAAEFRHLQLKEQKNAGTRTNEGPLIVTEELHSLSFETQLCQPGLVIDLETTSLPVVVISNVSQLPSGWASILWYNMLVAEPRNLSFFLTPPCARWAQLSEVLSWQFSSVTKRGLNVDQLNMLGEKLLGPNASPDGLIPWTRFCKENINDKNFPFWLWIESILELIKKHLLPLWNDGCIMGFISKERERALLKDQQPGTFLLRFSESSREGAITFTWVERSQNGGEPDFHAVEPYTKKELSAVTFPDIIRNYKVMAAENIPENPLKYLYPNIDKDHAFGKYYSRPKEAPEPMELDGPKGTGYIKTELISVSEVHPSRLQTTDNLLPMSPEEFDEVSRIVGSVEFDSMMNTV

In general, IC50 refers to the point on the concentration scale where inhibition reaches its midpoint. Take `COc1ccc(C2=NN(C(=O)CCCC(=O)O)C(c3cn(-c4ccccc4)nc3-c3ccccc3)C2)cc1` (configuration not stated): the IC50 is 19.8 µM (active) in assay [1], 17.5 µM (active) in assay [2], > 50 µM (inactive) in assay [3] and 3.91 µM (active) in [4].

As a reminder, the EC50 is the concentration that produces a half-maximal response. Turning to `O=C(CSc1nc(O)c2c(-c3ccccc3)csc2n1)Nc1ccccc1`, the EC50 in [5] was 5.71 µM (active). Further, the IC50 in assay [6] was 4.78 µM (active); in assay [7], 16 µM (active); in assay [8] it was 1.93 µM (active); in [9] it was > 20 µM (inactive); in assay [10], > 20 µM (inactive).

For the compound `c1ccc(CC2CCN(c3nc(CN4CCOCC4)nc4sc5c(c34)CCCC5)CC2)cc1`, the IC50 in assay [11] and in assay [12] was > 55.7 µM (inactive) throughout.
